Measurements: US20240036050A1, “Methods Of Detecting And Treating Hepatocellular Carcinoma” (The United States Government As Represented By The …, priority 2022, published 2024)

Tests used:
Assay type in all cases: cell-based, human
Huh-7.5 cells [1] = experiment: Exosome and microvesicle production by immuno-magnetic bead affinity flow cytometry; settings: 72 hours; for exosome production and GPC3 positive exosomes: CD63 beads
Method: Cells were cultured in exosome-depleted medium three days before the EV analysis. Briefly, cellular debris was removed from the culture supernatant by centrifugation at 2000 g for 30 minutes. Cleared supernatants were transferred to a new tube and mixed with 0.5 volumes of total EV isolation reagent from Invitrogen Carlsbad, CA (4478359). Tubes were incubated at 40 C overnight. The following day samples were centrifuged at 10,000 g for one hour at 40 C. Carefully removed supernatant, and EV pellet was resuspended in PBS and stored at […]. EVs concentration and size distribution were determined using NanoSight (Model NTA3300 with 532 nm green laser module, Malvern, Worcestershire, UK). Biotin anti-human CD63 antibody (Clone: H5C6) was purchased from BioLegend, San Diego, CA (353018). Biotin-conjugated Annexin A1 antibody was purchased from FabGennix Frisco, TX (ANXA1-BIOTIN). Biotin conjugated heparin was purchased from Sigma-Aldrich, Saint Louis, MO (B9806-10MG). Anti-glypican-3 (sc-390587 AF488), Anti-ARF6 (sc-7971 FITC), and Anti-CD81 (sc-166029 PE) were purchased from Santa Cruz Biotechnology, Santa Cruz, CA.
Streptavidin-coated magnetic beads were purchased from Invitrogen Carlsbad, CA (10608D). Beads were prewashed in phosphate buffer saline (PBS) and then incubated with biotinylated antibodies for one hour. Antibodies to CD63 or Annexin A1 were used at a proportion of 4 μg/5 mg of beads, or biotinylated heparin was used at 100 μg/1 mg of beads. […] Following this step, the EV-bead complex was incubated with fluorescence-labeled antibodies diluted in 100 μl PBS 1% BSA for one hour at room temperature. Beads were washed in PBS 1% BSA and then analyzed on a Becton-Dickinson flow cytometer (BD FACS Celesta) using BD FACSDiva Software 6.0, San Jose, CA. […]
The bead-based assay was used to verify the production of microvesicles and exosomes by autophagy modulation. […] The impact of autophagy modulation on the production of exosomes and microvesicles was quantified by flow analysis. […] The next day captured EVs were analyzed after staining with […] by flow cytometry. […]

[2] = test system: CD63-GFP stable cell line (Huh-7.5-CD63-GFP); experiment: CD63-GFP expression by fluorescence microscopy after autophagy modulation; settings: increasing concentrations, 72 hours
Method: FIGS. 5A-5D: Show impaired autophagy promotes GPC3 accumulation in exosomes. CD63-GFP stable cell line was treated with increasing concentrations of Torin1 or Bafilomycin A1 for 72 hours.
Huh7.5 cells were cultured in DMEM high glucose with 10% fetal calf serum (FBS), L-glutamine, 1 mM sodium pyruvate, and 0.1 mM non-essential amino acids with 1% penicillin and streptomycin. Huh-7.5 cells were transfected with CD63-GFP plasmid, and multiple stable cell lines expressing (Huh-7.5-CD63-GFP) were selected using G-418 (Sigma-Aldrich, St. Louis, MO) selection. Human cholangiocarcinoma cell line (HuCCA) and human embryonic kidney cell line (HEK 293) were purchased from ATCC. These two cell lines were cultured according to the instruction provided by the supplier and maintained with regular medium change every three days. Torin 1 was purchased from EMD Millipore, Burlington, MA (475991-10MG), and Bafilomycin A1 were purchased from Cell Signaling Technology, Danvers, MA (54645S). Exosome-free fetal bovine serum was purchased from ThermoFisher Waltham, MA (A2720803). Monoclonal rabbit and mouse antibodies were used as primary antibodies in western blot as well as fluorescent microscopy imaging. Anti-CD81 monoclonal rabbit—MA5-13548—and anti-glypican3 monoclonal rabbit—MA5-16368 purchased from ThermoFisher. […]

Huh-7.5 cells [3] = experiment: GPC3, Tsg101 and CD63 expression in HCC cells by fluorescence microscopy and Western blot; settings: for GPC3 and Tsg101 expression: fluorescence microscopy
Method: Huh7.5 cells were cultured in DMEM high glucose with 10% fetal calf serum (FBS), L-glutamine, 1 mM sodium pyruvate, and 0.1 mM non-essential amino acids with 1% penicillin and streptomycin. Huh-7.5 cells were transfected with CD63-GFP plasmid, and multiple stable cell lines expressing (Huh-7.5-CD63-GFP) were selected using G-418 (Sigma-Aldrich, St. Louis, MO) selection. Human cholangiocarcinoma cell line (HuCCA) and human embryonic kidney cell line (HEK 293) were purchased from ATCC. These two cell lines were cultured according to the instruction provided by the supplier and maintained with regular medium change every three days. Torin 1 was purchased from EMD Millipore, Burlington, MA (475991-10MG), and Bafilomycin A1 were purchased from Cell Signaling Technology, Danvers, MA (54645S). Exosome-free fetal bovine serum was purchased from ThermoFisher Waltham, MA (A2720803). Monoclonal rabbit and mouse antibodies were used as primary antibodies in western blot as well as fluorescent microscopy imaging. Anti-CD81 monoclonal rabbit—MA5-13548—and anti-glypican3 monoclonal rabbit—MA5-16368 purchased from ThermoFisher. Anti-ARF6 monoclonal rabbit—5740S—and anti-Beta actin monoclonal rabbit—4970S purchased from Cell signaling, Anti-Tsg 101 monoclonal mouse sc-7964 purchased from Santa Cruz Biotechnology.
Western blotting was performed using a standard protocol. Cultured cells were harvested by the treatment of trypsin-EDTA (Life Technologies, Carlsbad, CA, USA) at different time points and were washed twice with PBS, then lysed in ice-cold RIPA buffer (Sigma-Aldrich, St. Louis, MO, USA) with a protease inhibitor (ThermoFisher Scientific, Waltham, MA, USA) and phosphatase inhibitor cocktail (Sigma-Aldrich, St. Louis, MO, USA). The total protein content of the extract was quantified using NanoDrop™ 2000 (ThermoFisher Scientific, Waltham, MA, USA). Cell lysates (approximately 20 μg of protein) were loaded by SDS-PAGE and transferred into a nitrocellulose membrane ([…] pore size, ThermoFisher Scientific, Waltham, MA, USA). […]

[4] = test system: HCC cell lines (Huh-7, Huh-7PX, Huh-7.5, HLE); experiment: DQ-Red BSA endocytosis assay with Torin1 stimulation; settings: Torin1 200 nM
From the text: (§1) FIGS. 9A-9H: Show Association between p62, autophagy status, and glypican 3 (GPC3) expression in HCC cell lines and normal hepatocytes. […] Scale bars=m. […] The results are expressed as the mean±standard deviation (SD). ***P<0.001. For each cell line 10 view fields were quantified. […] Scale bars=20 m. […] Scale bars=20 m.
DQ™ Red BSA (D12051, Thermo Scientific) is a fluorogenic substrate that is endocytosed in cells and traffics through early endosomes to late endosomes that then fuse with acidic hydrolase containing lysosomes. This leads to the formation of endo-lysosomes that degrade DQ-Red BSA, de-quenching the fluorescence of the dye attached to this cargo, therefore, produces bright red spots in endo-lysosomes. Equal number of cells was seeded in 6-well plate. Then, untreated and Torin1-treated live cells were incubated with DQ-Red BSA for one hour. After washing cells with PBS, cells were fixed with 4% paraformaldehyde and counterstained with Hoechst 33342 (H3570, Thermo Scientific). Cells were examined using fluorescent microscopy.
Next, it was confirmed whether HCC cell lines and non-transformed primary hepatocytes could recapitulate impaired autophagy and increased GPC3 expression specific to HCC. A panel of 6 HCC cell lines was examined for p62 expression levels compared to primary human hepatocytes (PHH) using immunocytochemistry (FIG. 9A). […]

[5] = test system: autophagy-deficient HCC lines (Huh-7, Huh-7PX, Huh-7.5); experiment: p62 degradation by Western blot after Torin1 treatment
From the text: as §1
PHHs or HCC cells were immobilized on glass slides and stained for p62 and glypican 3 by immunostaining. Exosomes and adherent cells were separated isolated from the cultures and lysates (20 μg of protein) prepared and examined for expression of p62, glypican 1, glypican 3 and exosome markers, CD9, TSG101 by SDS-PAGE electrophoresis and Western blotting. Cells were lysed in ice-cold lysis buffer (50 mM Tris HCl pH 8.0, 140 mM NaCl, 1.5 mM MgCl2, 0.5% NP-40 with complete protease inhibitor from Invitrogen) for 10 minutes in ice (about 1×10^6 cells/200 μL). Cells pelleted by low-speed centrifugation. The detergent compatible (DC) protein assay determined protein concentration. Samples were boiled for 10 minutes at 80° C. in the presence of 1× sodium dodecyl sulfate-polyacrylamide gel electrophoresis (SDS-PAGE)-loading buffer (250 mM Tris-HCl pH 6.8, 40% glycerol, 8% SDS, 0.57M β-mercaptoethanol, 0.12% bromophenol blue). Approximately 20 μg of protein was loaded onto 12% SDS-PAGE and transferred into a nitrocellulose membrane (LC2001 Thermo Scientific). […]

Row | SMILES | exosome production and GPC3 positive exosomes (Huh-7.5 cells [1]) | CD63-GFP expression [2] | GPC3 and Tsg101 expression (Huh-7.5 cells [3]) | ARF6 positive microvesicles (Huh-7.5 cells [1]; Annexin A1 beads) | DQ-BSA fluorescence signal ([4]; autophagy-deficient HCC lines (Huh-7, Huh-7PX, Huh-7.5)) | DQ-BSA fluorescence signal ([4]; autophagy-sufficient HLE cells) | GPC3 and CD63 levels by Western blot (Huh-7.5 cells [3]; two concentrations, 72 hours) | p62 levels [5]
1 | CO/C1=C\C(C)=C\[C@@H](C)[C@@H](O)[C@@H](C)C/C(C)=C/C=C/[C@H](OC)[C@@H]([C@@H](C)[C@@H](O)[C@H](C)[C@@]2(O)C[C@@H](O)[C@H](C)[C@@H](C(C)C)O2)OC1=O [Bafilomycin A1] | increased exosome release and glypican-positive exosomes | induced its expression | accumulates GPC3 expression |  |  |  |  | 
2 | CCC(=O)N1CCN(c2ccc(-n3c(=O)ccc4cnc5ccc(-c6cnc7ccccc7c6)cc5c43)cc2C(F)(F)F)CC1 [Torin1] | decreased total exosome production and glypican3 positive exosomes | degrades CD63-GFP chimera protein | degrades GPC3 and Tsg101 | promote ARF6 positive microvesicles | could only be induced following Torin1 treatment | increased | leads to GPC3 and CD63 degradation | decreased p62 levels
